PMC3294087 (Journal of Immunology (Baltimore, Md. : 1950), 2012)
Like-named read-outs stand apart in the source and are kept apart here.

Columns and labels:
[1] = system: Candida albicans (Berkhout anamorph, ATCC # MYA-3573); assay type: cell-based; details: mean of three experiments
[2] = system: Staphylococcus aureus (Wood 46 strain; ATCC# 10832); assay type: cell-based; details: 30 min at 37°C in PBS, mean of three experiments
[3] = system: Phil82 strain of IAV (A/Phillipines/82(H3N2)); test: Fluorescent focus assay on A549 cells; assay type: cell-based, influenza A virus; details: mean±SEM of 4 experiments

Molecule | C. albicans % of Control Colonies ([1]; 1.25 μg/ml) | C. albicans % of Control Colonies ([1]; 2.5 μg/ml) | C. albicans % of Control Colonies ([1]; 20 μg/ml) | S. aureus % of Control Colonies ([2]; 1.25 μg/ml) | S. aureus % of Control Colonies ([2]; 2.5 μg/ml) | S. aureus % of Control Colonies ([2]; 20 μg/ml) | Neutralizing activity (infectious foci, control = 100%) ([3]; SP-D 5 ng/ml alone) | Neutralizing activity (infectious foci, control = 100%) ([3]; SP-D 10 ng/ml alone)
HNP1: human neutrophil α-defensin | 81±5 % | 61±4 % | 61±2 % | 202±5% | 151±4% | 71±1 % | – | –
SP-D: Recombinant human pulmonary surfactant protein D, dodecameric fraction, produced in CHO-K1 cells (protein, UniProt P35247 21-375, looked up, dodecameric fraction) Pulmonary …: AEMKTYSHRTMPSACTLVMCSSVESGLPGRDGRDGREGPRGEKGDPGLPGAAGQAGMPGQAGPVGPKGDNGSVGEPGPKGDTGPSGPPGPPGVPGPAGREGPLGKQGNIGPQGKPGPKGEAGPKGEVGAPGMQGSAGARGLAGPKGERGVPGERGVPGNTGAAGSAGAMGPQGSPGARGPPGLKGDKGIPGDKGAKGESGLPDVASLRQQVEALQGQVQHLQAAFSQYKKVELFPNGQSVGEKIFKTAGFVKPFTEAQLLCTQAGGQLASPRSAAENAALQQLVVAKNEAAFLSMTDSKTEGKFTYPTGESLVYSNWAPGEPNDDGGSEDCVEIFTNGKWNDRACGEKRLVVCEF | – | – | – | – | – | – | 74±10% | 50±6%
